Results reported in paper PMC8011926 (Journal of Medicinal Chemistry, 2020).
Non-standard residues stand in square brackets, D forms with d. Residues, ends and D or L forms follow the SMILES beside them. No end group written: not given here.

What was measured:
[1] = target: T1, NOP receptor (NOP-RLuc/Gβ1-RGFP) (Homo sapiens, UniProt P41146); assay: NOP/G protein interaction, BRET assay in membranes; assay type: biochemical; conditions: for NOP/G protein pEC50 (CL95%): BRET, membranes (3 μg protein) from HEK293 cells co-expressing NOP-RLuc/Gβ1-RGFP, room temperature, mean of five independent experiments in duplicate, 95% confidence limits; for NOP/G protein α ± sem (intrinsic activity): Emax of ligand / Emax of N/OFQ(1–13)-NH2, mean ± sem of five experiments in duplicate; for NOP/G protein CR (concentration ratio): ratio between EC50 of the ligand and that of the standard agonist N/OFQ(1–13)-NH2
T1 construct: expressed in transfected cells; host or cells: HEK293 (enriched plasma membranes)
T1 sequence (P41146 whole entry): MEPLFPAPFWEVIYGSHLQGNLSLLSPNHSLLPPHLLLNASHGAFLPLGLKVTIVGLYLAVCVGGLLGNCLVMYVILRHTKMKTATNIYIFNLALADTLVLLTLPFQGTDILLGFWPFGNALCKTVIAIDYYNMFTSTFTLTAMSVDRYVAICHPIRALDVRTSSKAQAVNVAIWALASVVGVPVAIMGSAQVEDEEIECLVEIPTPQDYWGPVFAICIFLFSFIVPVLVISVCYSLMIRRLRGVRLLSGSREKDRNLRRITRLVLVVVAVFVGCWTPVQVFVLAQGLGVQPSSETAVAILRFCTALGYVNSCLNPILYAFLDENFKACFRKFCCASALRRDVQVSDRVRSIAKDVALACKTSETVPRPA
Experimental: (§1) For this study, human embryonic kidney (HEK293) cells, permanently co-expressing the different pairs of fusion proteins NOP-RLuc/Gβ1-RGFP and NOP-RLuc/β-arrestin 2-RGFP, and SH-SY5Y cells stably, co-expressing the different pairs of fusion proteins mu-RLuc/Gβ1-RGFP and mu-RLuc/β-arrestin 2-RGFP or delta-RLuc/Gβ1-RGFP and delta-RLuc/β-arrestin 2-RGFP, were used. Cells were prepared and cultured, as described previously.[19],[23] Cells were grown in Dulbecco’s modified Eagle’s medium (DMEM)/HAMS F12 (1:1) supplemented with 10% fetal bovine serum, penicillin G (100 units/mL), streptomycin (100 μg mL^–1), L-glutamine (2 mM), fungizone (1 μg mL^–1), geneticin (G418; 200 μg mL^–1), and hygromycin B (100 μg mL^–1) in a humidified atmosphere of 5% CO2 at 37 °C. For G protein experiments, enriched plasma membrane aliquots from transfected cells were prepared by differential centrifugation; cells were detached with phosphate buffered saline (PBS)/EDTA solution (1 mM, pH 7.4 NaOH), then, after 5 min 500g centrifugation, Dounce-homogenized (30 strokes) in cold homogenization buffer (tris(hydroxymethyl)aminomethane 5 mM, EGTA 1 mM, DTT 1 mM, pH 7.4 HCl) in the presence of sucrose (0.32 M). Three following centrifugations were performed at 10 min 1000g (4 °C), and the supernatants were kept. Two 20 min 24,000g (4 °C) subsequent centrifugations (the second in the absence of sucrose) were performed for separating enriched membranes that, after discarding the supernatant, were kept in ultrapure water at −80 °C.[67] The protein concentration in membrane preparations was determined using the QPRO-BCA kit (Cyanagen Srl, Bologna, IT) and the Ensight (PerkinElmer, Waltham, USA) in the spectrophotometer mode.
(§2) Luminescence in membranes was recorded in 96-well untreated white opaque microplates, while in whole cells, it was recorded in 96-well sterile poly-D-lysine-coated white opaque microplates (PerkinElmer, Waltham, MA, USA) using the luminometer Victor 2030 (PerkinElmer, Waltham, MA, USA). For the determination of receptor/G protein interactions, membranes (3 μg of protein) prepared from cells co-expressing NOP (or mu or delta)/RLuc and Gβ1/RGFP were added to wells in DPBS. For the determination of receptor/β-arrestin 2 interactions, cells co-expressing NOP (or mu or delta)/RLuc and β-arrestin 2/RGFP were plated 24 h before the experiment in poly-D-lysine-treated plates (100,000 cells/well). The cells were prepared for the experiment substituting the medium with PBS with MgCl2 (0.5 mM) and CaCl2 (0.9 mM). Coelenterazine at a final concentration of 5 μM was injected 15 min prior to reading the cell plate. Different concentrations of ligands in 20 μL of PBS–BSA 0.01% were added and incubated 5 min before reading luminescence. […] The BRET ratio was measured 15 min after agonist injection. All experiments were performed at room temperature.
(§3) The pharmacological terminology adopted in this paper is consistent with IUPHAR recommendations.[68] All data are expressed as the mean ± sem of five independent experiments made in duplicate. […] Ligand efficacy was expressed as intrinsic activity (α), calculated as the ratio between the Emax of the ligand and that of the standard agonist. Count per second (CPS) measured for the RGFP and RLuc light emitted using 510(10) and 460(25) filters (PerkinElmer, Waltham, MA), respectively, was used to calculate the BRET ratio. All data are expressed as the stimulated BRET ratio, that is, the ratio between CPS from RGFP and RLuc in the presence of ligands minus the BRET ratio in vehicle-treated wells. […] Concentration–response curves to agonists were fitted to the classical four-parameter logistic nonlinear regression model [drawing 1]
(§4) Curves fitting were performed using PRISM 6.0 (GraphPad Software In., San Diego, USA).

[2] = target: T2, NOP receptor (NOP-RLuc/β-arrestin 2-RGFP) (Homo sapiens, UniProt P41146); assay: NOP/β-arrestin 2 interaction, BRET assay in whole cells; assay type: cell-based; conditions: for NOP/β-arrestin 2 pEC50 (CL95%): BRET, whole HEK293 cells co-expressing NOP-RLuc/β-arrestin 2-RGFP, 100,000 cells/well, room temperature, mean of five independent experiments in duplicate, 95% confidence limits; for NOP/β-arrestin 2 α ± sem (intrinsic activity): Emax of ligand / Emax of N/OFQ(1–13)-NH2, mean ± sem of five experiments in duplicate; for NOP/β-arrestin 2 CR (concentration ratio): ratio between EC50 of the ligand and that of the standard agonist N/OFQ(1–13)-NH2
T2 construct: expressed in transfected cells; host or cells: HEK293 (whole cells)
T2 sequence (P41146 whole entry): as above
Experimental: as §1, §2, §3, §4

NOP receptor = assay: NOP bias factor, G protein vs β-arrestin 2 (Black–Leff operational model); conditions: for BIAS FACTOR: supplementary CSV (molecular formula strings), repeats Tables 1–7 without confidence limits; for bias factor (CL95%), NOP: ΔΔlog(τ/KA) G protein minus β-arrestin 2, N/OFQ(1–13)-NH2 as standard unbiased ligand, positive = toward G protein, mean of at least five experiments
From the text: The concentration–response curves of each compound were fitted to the Black–Leff operational model, described by Nagi and Pineyro[70] [drawing 3] where [A] is the agonist concentration, the maximal response of the system is given by Em, n is a fitting parameter for the slope, the affinity of the agonist is represented by the equilibrium dissociation constant of the agonist–receptor complex (KA), and the efficacy of the agonist is defined by τ. τ and KA are descriptive parameters of intrinsic efficacy and binding affinity and may be directly obtained by fitting the experimental data to the operational equation and can be expressed as “transduction coefficients” log(τ/KA). The relative efficiency of agonists producing activation of any pathways can thus be quantified with a “normalized” transduction coefficient, namely Δlog(τ/KA). Finally, the bias factors were calculated as difference between Δlog(τ/KA) values for a given agonist between the pathways (G protein and β-arrestin 2) [drawing 4]
Bias factors are expressed as the mean of at least five independent experiments, and CL95% are indicated. Biased factor is considered to be statistically different from 0 when 0 is not included in CL95%. α values have been statistically analyzed with one-way analysis of variance (ANOVA) followed by the Dunnett post hoc test for multiple comparisons; P values less than 0.05 were considered to be statistically significant.

[3] = target: N/OFQ peptide (NOP) receptor fused to Renilla luciferase (UniProt P41146)
Chain of N/OFQ peptide (NOP) receptor fused to Renilla luciferase (P41146 whole entry, the tested form may be a part): as the sequence (P41146 whole entry) above

## FGGFTGARKAARK-NH2 [Compound 9, [Ala^10]N/OFQ(1–13)-NH2]
[1]
  NOP/G protein pEC50 (CL95%): 9.25 (7.82–10.68)
  NOP/G protein α ± sem (intrinsic activity): 0.94 ± 0.04
  NOP/G protein CR (concentration ratio): 0.35
[2]
  NOP/β-arrestin 2 pEC50 (CL95%): 8.43 (7.91–8.95)
  NOP/β-arrestin 2 α ± sem (intrinsic activity): 1.00 ± 0.04
  NOP/β-arrestin 2 CR (concentration ratio): 0.68
NOP receptor
  BIAS FACTOR: -0.08
  bias factor (CL95%), NOP: –0.08 (−0.67–0.50)

## C[C@H](NC(=O)CNC(=O)[C@@H](NC(=O)[C@H](Cc1ccccc1)NC(=O)CNC(=O)[C@@H](C)NC(=O)[C@@H](N)Cc1ccccc1)[C@@H](C)O)C(=O)N[C@@H](CCCNC(=N)N)C(=O)N[C@@H](CCCCN)C(=O)N[C@@H](CO)C(=O)N[C@@H](C)C(=O)N[C@@H](CCCNC(=N)N)C(=O)N[C@@H](CCCCN)C(N)=O [Compound 26, [D-Ala^2]N/OFQ(1–13)-NH2] (H-F[dA]GFTGARKSARK-NH2)
[1]
  less potent than N/OFQ(1–13)-NH2 / reduction of potency, NOP/G protein: approximately 10 fold
  NOP/G protein pEC50 (CL95%): 7.57 (7.28–7.86)
  NOP/G protein α ± sem (intrinsic activity): 1.03 ± 0.03
  NOP/G protein CR (concentration ratio): 13
[2]
  NOP/β-arrestin 2 pEC50 (CL95%): 7.16 (6.94–7.34)
  NOP/β-arrestin 2 α ± sem (intrinsic activity): 0.95 ± 0.05
  NOP/β-arrestin 2 CR (concentration ratio): 13
NOP receptor
  BIAS FACTOR: 0.20
  bias factor (CL95%), NOP: 0.20 (−0.26–0.66)

## FGGFTGARASARK-NH2 [Compound 8, [Ala^9]N/OFQ(1–13)-NH2]
[1]
  NOP/G protein pEC50 (CL95%): 8.14 (6.88–9.41)
  NOP/G protein α ± sem (intrinsic activity): 0.97 ± 0.04
  NOP/G protein CR (concentration ratio): 5
[2]
  NOP/β-arrestin 2 pEC50 (CL95%): 7.77 (7.43–8.11)
  NOP/β-arrestin 2 α ± sem (intrinsic activity): 1.03 ± 0.07
  NOP/β-arrestin 2 CR (concentration ratio): 3
NOP receptor
  BIAS FACTOR: -0.15
  bias factor (CL95%), NOP: –0.15 (−0.79–0.49)

## FGGFTGARKSAAK-NH2 [Compound 10, [Ala^12]N/OFQ(1–13)-NH2]
[1]
  NOP/G protein pEC50 (CL95%): 7.31 (6.41–8.22)
  NOP/G protein α ± sem (intrinsic activity): 0.91 ± 0.04
  NOP/G protein CR (concentration ratio): 31
[2]
  NOP/β-arrestin 2 pEC50 (CL95%): 6.85 (6.57–7.14)
  NOP/β-arrestin 2 α ± sem (intrinsic activity): 0.99 ± 0.05
  NOP/β-arrestin 2 CR (concentration ratio): 26
NOP receptor
  BIAS FACTOR: -0.15
  bias factor (CL95%), NOP: –0.15 (−0.78–0.49)

## LGGFTGARKSARK-NH2 [Compound 23, [Leu^1]N/OFQ(1–13)-NH2]
[1]
  NOP/G protein pEC50 (CL95%): 8.19 (7.88–8.51)
  NOP/G protein α ± sem (intrinsic activity): 1.06 ± 0.02
  NOP/G protein CR (concentration ratio): 3
[2]
  NOP/β-arrestin 2 pEC50 (CL95%): 7.87 (7.69–8.04)
  NOP/β-arrestin 2 α ± sem (intrinsic activity): 1.04 ± 0.06
  NOP/β-arrestin 2 CR (concentration ratio): 3
NOP receptor
  BIAS FACTOR: -0.08
  bias factor (CL95%), NOP: –0.08 (−0.53–0.37)

## [Cys(X)^14]N/OFQ(1-14)-NH2 [Compound 49] (chain 1 FGGFTGARKSARKC; chain 2 KKKKKK) [(Lys)6 moiety]
[1]
  NOP/G protein pEC50 (CL95%): 10.06 (9.79-10.34)
[2]
  NOP/β-arrestin 2 pEC50 (CL95%): 8.22 (8.03-8.40)

## [Ala^4]N/OFQ(1–13)-NH2 (FGGATGARKSARK-NH2) [Compound 4]
[1]
  NOP/G protein pEC50 (CL95%): Crc incomplete
  NOP/G protein CR (concentration ratio): ∼1000
[2]
  NOP/β-arrestin 2 pEC50 (CL95%): inactive

## FGGFTGARKSARA-NH2 [Compound 11, [Ala^13]N/OFQ(1–13)-NH2]
[1]
  NOP/G protein pEC50 (CL95%): 7.91 (7.24–8.59)
  NOP/G protein α ± sem (intrinsic activity): 0.96 ± 0.06
  NOP/G protein CR (concentration ratio): 8
[2]
  NOP/β-arrestin 2 pEC50 (CL95%): 7.88 (7.75–8.01)
  NOP/β-arrestin 2 α ± sem (intrinsic activity): 1.03 ± 0.05
  NOP/β-arrestin 2 CR (concentration ratio): 2
NOP receptor
  BIAS FACTOR: -0.48
  bias factor (CL95%), NOP: –0.48 (−1.14–0.18)

## FGGFAGARKSARK-NH2 [[Ala^5]N/OFQ(1–13)-NH2]
[3]
  pEC50 for promoting the NOP/G protein interaction (BRET, membranes with NOP-RLuc and Gβ1-RGFP): 7.12 -log10 M
  pEC50 for promoting the NOP/β-arrestin 2 interaction (BRET, cells with NOP-RLuc and β-arrestin 2-RGFP): 6.13 -log10 M

## FGGFTAARKSARK-NH2 [[Ala^6]N/OFQ(1–13)-NH2]
[3]
  pEC50 for promoting the NOP/G protein interaction (BRET, membranes with NOP-RLuc and Gβ1-RGFP): 7.66 -log10 M
  pEC50 for promoting the NOP/β-arrestin 2 interaction (BRET, cells with NOP-RLuc and β-arrestin 2-RGFP): 7.1 -log10 M
